Reference: patent publication US20060205679A1, “Topical and oral formulations of cardiac glycosides for treating skin diseases” (Azaya Therapeutics, Inc., priority 2004, published 2006)

What was measured:
[1] = in 50 ml of 9.6% solution of hydroxypropyl-β-cyclodextrin, 70 to 80° C.
Description: 200 mg of oleandrin was weighed and placed in a sterile test tube. The oleandrin was dissolved in 3 to 5 mL of purified absolute ethanol. […] The ethanolic solution of oleandrin was slowly added to the beaker with stirring. […] The solution was sterile-filtered through a 0.22 μm filter. The solution was frozen below −40° C. and lyophilized.
500 mg of digitoxin was weighed and placed in a sterile test tube. […] The ethanolic solution of digitoxin was slowly added to the beaker with stirring. […] The solution was sterile-filtered through a 0.22 μm filter. The solution was frozen below −40° C. and lyophilized.
200 mg of proscillaridin-A was weighed and placed in a sterile test tube and was dissolved in 5 to 10 mL of purified absolute ethanol. […] The ethanolic solution of proscillaridin-A was slowly added to the beaker with stirring. […] The solution was sterile filtered through a 0.22 μm filter. The solution was frozen below −40° C. and lyophilized.

[2] = tested on: primary cultures of tumor cells from patients and a human cell line panel; settings: cited from earlier work
[3] = tested on: FGF-2 release from DU145 cells; settings: oleandrin 0.1 ng/mL; cited from earlier work
AP-1 = settings: cited from earlier work
murine cancer cells = settings: cited from earlier work
human cancer cells = settings: cited from earlier work
[4] = tested on: c-Jun NH2-terminal kinase; settings: cited from earlier work
[5] = tested on: androgen independent human prostate cancer cell lines; settings: in-vitro; cited from earlier work
[6] = cited from earlier work
[7] = tested on: cultered cancer cell lines; settings: cited from earlier work
[8] = tested on: FGF-2 release from PC3 cells; settings: oleandrin 0.1 ng/mL; cited from earlier work
NF-κB = settings: cited from earlier work
[9] = tested on: human malignant cell lines; settings: rapidly proliferating normal cells not affected; cited from earlier work

With `C[C@@H]1O[C@@H](O[C@@H]2C=C3CC[C@@H]4[C@H](CC[C@]5(C)[C@@H](c6ccc(=O)oc6)CC[C@]45O)[C@@]3(C)CC2)[C@H](O)[C@H](O)[C@H]1O` [proscillaridin-A, Proscillaridin A, reference compound] as the molecule, how does the amount effectively solubilized [1] read?
The amount effectively solubilized was 200 mg.

And the “selective toxicity against solid or hematological tumor cells from patients” value [2]?
The value was “no selective toxicity”.

Which “inhibition of FGF-2 release” value [3] does the source give for `CO[C@H]1C[C@H](O[C@H]2CC[C@@]3(C)[C@H](CC[C@@H]4[C@@H]3CC[C@]3(C)[C@@H](C5=CC(=O)OC5)[C@@H](OC(C)=O)C[C@]43O)C2)O[C@@H](C)[C@@H]1O` [oleandrin, 16β-acetoxy-3β-[(2,6 dideoxy-3-0-methyl-α2-L-arabino-hexopyranosyl)oxy]-14-hydroxy-5β, 14β-card-20(22)-enolide] here?
The value was 49.9%.

What about the amount effectively solubilized [1] of the same molecule?
Its amount effectively solubilized is 200 mg.

And the “AP-1 activation induced by TNF and other stimuli” value (AP-1)?
Its value is “blocked”.

What about the “toxicity to murine cancer cells” value (murine cancer cells) of the same molecule?
Its value is “not toxic”.

What about the “ability to kill human cancer cells” value (human cancer cells) of the same molecule?
Its value is “able to kill”.

What about the “TNF induced activation of c-Jun NH2-terminal kinase” value [4] of the same molecule?
Its value is “inhibited”.

And the induction of apoptosis [5]?
Its induction of apoptosis is “induce apoptosis”.

What about the “solubility in organic solvents” value ([6]; ethanol and chloroform) of the same molecule?
Its value is “soluble”.

And the “stability with respect to heat” value ([6]; heat)?
The value was “heat stable”.

And the “stability with respect to light” value ([6]; light)?
Its value is “unstable”.

And the solubility in water ([6]; water)?
The solubility in water was “almost insoluble”.

What about the anti-cancer activity [7] of the same molecule?
Its anti-cancer activity is “significant anti-cancer activity”.

What about the “inhibition of FGF-2 release” value [8] of the same molecule?
Its value is 45.7%.

And the “NF-κB activation induced by phorbol esters and bacterial lipopolysaccharide” value (NF-κB)?
The value was “blocked”.

And the “NF-κB-dependent reporter gene transcription activated by TNF” value (NF-κB)?
Its value is “suppressed”.

And the “TNF induced activation of NF-κB” value (NF-κB; concentration and time dependent)?
Its value is “blocked”.

For `C[C@H]1O[C@@H](O[C@H]2[C@@H](O)C[C@H](O[C@H]3[C@@H](O)C[C@H](O[C@H]4CC[C@@]5(C)[C@H](CC[C@@H]6[C@@H]5CC[C@]5(C)[C@@H](C7=CC(=O)OC7)CC[C@]65O)C4)O[C@@H]3C)O[C@@H]2C)C[C@H](O)[C@@H]1O` [digitoxin], which “growth and apoptosis at non-toxic concentrations” value [9] is on record?
Its value is “inhibit growth and induce apoptosis”.

With `C[C@H]1O[C@@H](O[C@H]2[C@@H](O)C[C@H](O[C@H]3[C@@H](O)C[C@H](O[C@H]4CC[C@@]5(C)[C@H](CC[C@@H]6[C@@H]5C[C@@H](O)[C@]5(C)[C@@H](C7=CC(=O)OC7)CC[C@]65O)C4)O[C@@H]3C)O[C@@H]2C)C[C@H](O)[C@@H]1O` [digoxin] as the molecule, how does the “selective toxicity against solid or hematological tumor cells from patients” value [2] read?
Its value is “selective toxicity against solid tumor cells”.

What about the induction of apoptosis [5] of the same molecule?
Its induction of apoptosis is “induce apoptosis”.

What about the “growth and apoptosis at non-toxic concentrations” value [9] of the same molecule?
Its value is “inhibit growth and induce apoptosis”.

For `CO[C@@H]1C[C@H](O[C@H]2CC[C@@]3(C)[C@H](CC[C@@]45O[C@@]46CC[C@H](C4=CC(=O)OC4)[C@@]6(C)CC[C@H]35)C2)O[C@H](C)[C@@H]1O` [adynerin], which anti-cancer activity [7] is on record?
The anti-cancer activity was “significant anti-cancer activity”.

With `C[C@@H]1O[C@@H](O[C@H]2C[C@@H](O)[C@]3(CO)[C@H]4[C@H](O)C[C@]5(C)[C@@H](C6=CC(=O)OC6)CC[C@]5(O)[C@@H]4CC[C@]3(O)C2)[C@H](O)[C@H](O)[C@H]1O` [ouabain] as the molecule, how does the induction of apoptosis [5] read?
The induction of apoptosis was “induce apoptosis”.

For `C[C@H]1[C@H](C)CC[C@]2(C(=O)O)CC[C@]3(C)C(=CC[C@@H]4[C@@]5(C)CC[C@H](O)C(C)(C)[C@@H]5CC[C@]43C)[C@H]12` [ursolic acid], which anti-cancer activity [7] is on record?
The anti-cancer activity was “significant anti-cancer activity”.
